Results from patent US10947222B2, “Indole derivatives useful as inhibitors of diacylglyceride O-acyltransferase 2” (Merck Sharp & Dohme Corp., priority 2016, dated 2021).

Target: human DGAT2 (hDGAT2) (Homo sapiens (Human), UniProt Q96PD7)
Test: DGAT2 enzymatic activity assay (triolein formation, LC/MS/MS)
Assay type: biochemical
Details: Sf-9 membrane prep expressing hDGAT2; 25 μM diolein, 10 μM oleoyl-CoA; triolein by LC/MS/MS
Protocol: Sf-9 insect cells were maintained in Grace's insect cell culture medium with 10% heated-inactivated fetal bovine serum, 1% Pluronic F-68 and 0.14 μg/ml Kanamycine sulfate in Erlenmeyer flasks at 28° C. in a shaker incubator. After infection with untagged baculovirus expressing human DGAT2 (hDGAT2) at multiplicity of infection (MOI) 0.1 for 48 hours, cells were harvested. Cell pellets were suspended in buffer containing 10 mM Tris-HCl (pH 7.5), 1 mM EDTA (pH 8.0), 250 mM sucrose and Complete Protease Inhibitor Cocktail (Roche Diagnostics Corp., Indianapolis, Ill.), and sonicated on ice. Membrane fractions were isolated by ultracentrifugation (100,000×g pellet), resuspended in the same buffer, and frozen (−80° C.) for later use. The protein concentration was determined with the BCA Protein Assay kit (Pierce Biotechnology Inc., Rockford, Ill.). Expression of protein levels was analyzed by immunoblotting with goat polyclonal DGAT2 antibody C-15 and donkey anti-goat IgG HRP (Santa Cruz Biotechnology, Inc., Santa Cruz, Calif.) followed by detection with ECL reagent (GE Healthcare, Piscataway, N.J.).
LC/MS/MS analyses were performed using Thermal Fisher's LX4-TSQ Vantage system. This system consists of an Agilent binary high-performance liquid chromatography (HPLC) pumps and a TSQ Vantage triple quadrupole MS/MS instrument. For each sample, 2 μL samples from the top organic layer of in-plate liquid-liquid extraction were injected onto a Thermo Betabasic C4 column (2.1 mm×20 mm, 5 μm particle size). The samples were then eluted using the following conditions; mobile phase: methanol/water with 0.1% ammonium format=92/8 (v/v), flow rate: 1 mL/min, temperature: 25 C. Data was acquired in positive mode using a heated electrospray ionization (HESI) interface. The operational parameters for the TSQ Vantage MS/MS instrument were a spray voltage of 3000 V, capillary temperature of 280° C., vaporizer temperature 400° C., shealth gas 60 arbitrary unit, Aux gas 40 arbitrary units, S-lens 113 and collision gas 0.16 Pascals. […] (SRM) chromatograms of triolein (Q1:902.9>Q3:602.3) and internal standard (Q1:902.9>Q3:602.3) were collected for 40 sec. The peak area was integrated by Xcalibur Quan software. The ratio between the triolein generated in the reaction and spiked in internal standard was used to generate percentage inhibition and IC50 values. Compound percentage inhibition was calculated by the following formula: Inhibition %/=1−[(compound response−low control)/(high control−low control)]×100%. Potent compounds were titrated and IC50 were calculated by 4 parameter sigmoidal curve fitting formula.
DGAT2 activity was determined by measuring the amount of enzymatic product triolein (1,2,3-Tri(cis-9-octadecenoyl)glycerol) using the membrane prep mentioned above. The assay was carried out in deep well 384 plates in a final volume of 40 μL at rt. The assay mixture contained the following: assay buffer (100 mM Tris.Cl, pH 7.0, 20 mM MgCl2, 5% ethanol), 25 μM of diolein, 10 μM of oleoyl-CoA and 10 ng/μL of DGAT2 membrane.

Sequence of human DGAT2 (hDGAT2) (Q96PD7 whole entry): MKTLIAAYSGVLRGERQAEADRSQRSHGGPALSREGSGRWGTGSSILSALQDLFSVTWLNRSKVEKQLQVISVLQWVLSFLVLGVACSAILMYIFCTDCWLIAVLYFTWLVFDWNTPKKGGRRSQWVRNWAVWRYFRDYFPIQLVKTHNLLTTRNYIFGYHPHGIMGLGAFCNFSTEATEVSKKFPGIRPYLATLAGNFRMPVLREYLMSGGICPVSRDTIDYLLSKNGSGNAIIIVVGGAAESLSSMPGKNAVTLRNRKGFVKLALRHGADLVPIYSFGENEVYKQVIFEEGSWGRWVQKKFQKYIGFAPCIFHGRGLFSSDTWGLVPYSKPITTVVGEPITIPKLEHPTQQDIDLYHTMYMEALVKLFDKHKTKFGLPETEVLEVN

SMILES	IC50 [nM]
CC1(NC(=O)c2ccc3c(-c4cccc(OC(F)F)c4)cn(-c4ccc(F)cn4)c3c2)CCS(=O)(=O)C1 (single isomer, unassigned; enantiomer a) [Example 10-A, 3-(3-(difluoromethoxy)phenyl)-1-(5-fluoropyridin-2-yl)-N-(3-methyl-1,1-dioxidotetrahydrothiophen-3-yl)-1H-indole-6-carboxamide (enantiomer A)]	0.94
CC1(NC(=O)c2ccc3c(-c4ccccc4Cl)cn(-c4ncc(F)cn4)c3c2)CCS(=O)(=O)C1 (single isomer, unassigned; enantiomer b) [Example 15-B, 3-(2-chlorophenyl)-1-(5-fluoropyrimidin-2-yl)-N-(3-methyl-1,1-dioxidotetrahydrothiophen-3-yl)-1H-indole-6-carboxamide (enantiomer B, slow)]	28
Cc1noc(C)c1-c1cn(-c2ccc(F)cc2)c2cc(C(=O)NC3CCS(=O)(=O)C3)ccc12 (racemic) [Example 53, 3-(3,5-dimethylisoxazol-4-yl)-N-(1,1-dioxidotetrahydrothiophen-3-yl)-1-(4-fluorophenyl)-1H-indole-6-carboxamide (racemic)]	502
O=C(NC1CCS(=O)(=O)C1)c1ccc2c(-c3cccc(-c4ccccc4)c3)cn(-c3ccc(F)cc3)c2c1 (racemic) [Example 36, 3-biphenyl-3-yl-N-(1,1-dioxidotetrahydrothiophen-3-yl)-1-(4-fluorophenyl)-1H-indole-6-carboxamide (racemic)]	61
O=C(NC1CCS(=O)(=O)C1)c1ccc2c(-c3ccc(-n4cccn4)cc3)cn(-c3ccc(F)cc3)c2c1 (racemic) [Example 56, N-(1,1-dioxidotetrahydrothiophen-3-yl)-1-(4-fluorophenyl)-3-[4-(1H-pyrazol-1-yl)phenyl]-1H-indole-6-carboxamide (racemic)]	117
COCC(C)NC(=O)c1ccc2c(-c3ccccc3Cl)cn(-c3ccc(F)cc3)c2c1 (racemic) [Example 3, 3-(2-chlorophenyl)-1-(4-fluorophenyl)-N-(1-methoxypropan-2-yl)-1H-indole-6-carboxamide (racemic)]	344
O=C(NC1CCS(=O)(=O)C1)c1ccc2c(-c3ccccn3)cn(-c3ccc(F)cc3)c2c1 (racemic) [Example 22, N-(1,1-dioxidotetrahydrothiophen-3-yl)-1-(4-fluorophenyl)-3-(pyridin-2-yl)-1H-indole-6-carboxamide (racemic)]	664
COC(=O)c1cccc(-c2cn(-c3ccc(F)cc3)c3cc(C(=O)NC4CCS(=O)(=O)C4)ccc23)c1 (racemic) [Example 32, methyl 3-{6-[(1,1-dioxidotetrahydrothiophen-3-yl)carbamoyl]-1-(4-fluorophenyl)-1H-indol-3-yl}benzoate (racemic)]	3.2
Cc1ccnc(-c2cn(-c3ccc(F)cc3)c3cc(C(=O)NC4CCS(=O)(=O)C4)ccc23)c1 (racemic) [Example 23, N-(1,1-dioxidotetrahydrothiophen-3-yl)-1-(4-fluorophenyl)-3-(4-methylpyridin-2-yl)-1H-indole-6-carboxamide (racemic)]	117
C[C@@H](NC(=O)c1ccc2c(-c3ccccc3Cl)cn(-c3ccc(F)cc3)c2c1)c1ccc(C(F)(F)F)nc1 [Example 7, (R)-3-(2-chlorophenyl)-1-(4-fluorophenyl)-N-(1-(6-(trifluoromethyl)pyridin-3-yl)ethyl)-1H-indole-6-carboxamide]	671
CC1(NC(=O)c2ccc3c(-c4ccccc4Cl)cn(-c4ncc(F)cn4)c3c2)CCS(=O)(=O)C1 (single isomer, unassigned; enantiomer a) [Example 15-A, 3-(2-chlorophenyl)-1-(5-fluoropyrimidin-2-yl)-N-(3-methyl-1,1-dioxidotetrahydrothiophen-3-yl)-1H-indole-6-carboxamide (enantiomer A, fast)]	78
CC1(NC(=O)c2ccc3c(-c4cccc(OC(F)F)c4)cn(-c4ncc(F)cn4)c3c2)CCS(=O)(=O)C1 (single isomer, unassigned; enantiomer a) [Example 18-A, 3-(3-(difluoromethoxy)phenyl)-1-(5-fluoropyrimidin-2-yl)-N-(3-methyl-1,1-dioxidotetrahydrothiophen-3-yl)-1H-indole-6-carboxamide (enantiomer A)]	1.7
O=C(NC1CCS(=O)(=O)C1)c1ccc2c(-c3ccc(OC(F)F)cc3)cn(-c3ccc(F)cc3)c2c1 (racemic) [Example 57, 3-[4-(difluoromethoxy)phenyl]-N-(1,1-dioxidotetrahydrothiophen-3-yl)-1-(4-fluorophenyl)-1H-indole-6-carboxamide (racemic)]	562

The remaining lines, values ahead:

IC50 [nM]	SMILES
492	O=C(NC1CCS(=O)(=O)C1)c1ccc2c(-c3cccc(O)c3)cn(-c3ccc(F)cc3)c2c1 (racemic) [Example 59, N-(1,1-dioxidotetrahydrothiophen-3-yl)-1-(4-fluorophenyl)-3-(3-hydroxyphenyl)-1H-indole-6-carboxamide (racemic)]
28	O=C(NC1CCS(=O)(=O)C1)c1ccc2c(-c3cccc(Cl)c3)cn(-c3ccc(F)cc3)c2c1 (racemic) [Example 31, 3-(3-chlorophenyl)-N-(1,1-dioxidotetrahydrothiophen-3-yl)-1-(4-fluorophenyl)-1H-indole-6-carboxamide (racemic)]
0.79	CC1(NC(=O)c2ccc3c(-c4cccc(C5CC5)c4)cn(-c4ccc(F)cn4)c3c2)CCS(=O)(=O)C1 (single isomer, unassigned; enantiomer a) [Example 12-A, 3-(3-cyclopropylphenyl)-1-(5-fluoropyridin-2-yl)-N-(3-methyl-1,1-dioxidotetrahydrothiophen-3-yl)-1H-indole-6-carboxamide (enantiomer A)]
13	N#Cc1cccc(-c2cn(-c3ccc(F)cc3)c3cc(C(=O)NC4CCS(=O)(=O)C4)ccc23)c1 (racemic) [Example 45, 3-(3-cyanophenyl)-N-(1,1-dioxidotetrahydrothiophen-3-yl)-1-(4-fluorophenyl)-1H-indole-6-carboxamide (racemic)]
0.52	O=C(NC1CCS(=O)(=O)C1)c1ccc2c(-c3cccc(OC(F)F)c3)cn(-c3ccc(F)cc3)c2c1 (single isomer, unassigned; enantiomer a) [Example 27-A, 3-(3-(difluoromethoxy)phenyl)-N-(1,1-dioxidotetrahydrothiophen-3-yl)-1-(4-fluorophenyl)-1H-indole-6-carboxamide (enantiomer A)]
163	CC(=O)Nc1cccc(-c2cn(-c3ccc(F)cc3)c3cc(C(=O)NC4CCS(=O)(=O)C4)ccc23)c1 (racemic) [Example 37, 3-[3-(acetylamino)phenyl]-N-(1,1-dioxidotetrahydrothiophen-3-yl)-1-(4-fluorophenyl)-1H-indole-6-carboxamide (racemic)]
2.1	O=C(NC1CCS(=O)(=O)C1)c1ccc2c(-c3cccc(C4CC4)c3)cn(-c3ccc(F)cn3)c2c1 (single isomer, unassigned; enantiomer a) [Example 11-A, 3-(3-cyclopropylphenyl)-N-(1,1-dioxidotetrahydrothiophen-3-yl)-1-(5-fluoropyridin-2-yl)-1H-indole-6-carboxamide (enantiomer A)]
2.7	CC1(NC(=O)c2ccc3c(-c4cccc(C5CC5)c4)cn(-c4ncc(F)cn4)c3c2)CCS(=O)(=O)C1 (single isomer, unassigned; enantiomer a) [Example 16-A, 3-(3-cyclopropylphenyl)-1-(5-fluoropyrimidin-2-yl)-N-(3-methyl-1,1-dioxidotetrahydrothiophen-3-yl)-1H-indole-6-carboxamide (enantiomer A)]
345	Cn1cc(-c2cn(-c3ccc(F)cc3)c3cc(C(=O)NC4CCS(=O)(=O)C4)ccc23)cn1 (racemic) [Example 54, N-(1,1-dioxidotetrahydrothiophen-3-yl)-1-(4-fluorophenyl)-3-(1-methyl-1H-pyrazol-4-yl)-1H-indole-6-carboxamide (racemic)]
